The results in this text go back to ChEMBL document CHEMBL6109043, “Advances in the selective c-MET kinase inhibitors: Application of fused [5,6]-Bicyclic nitrogen-containing cores for anticancer drug design” (Eur J Med Chem, 2025).

One data set relates to NCI-H661. Nature of the data set: Antiproliferative activity against human NCI-H661 cells assessed as reduction in cell viability incubated for 72 hrs by SRB assay. The conditions noted are these: NCI-H661, 72 h. (In SRB staining, fixed cells bind dye roughly in proportion to their protein.)
The subject of data set [1] is NIH3T3. Nature of the data set: Antiproliferative activity against mouse NIH3T3 cells assessed as reduction in cell growth incubated for 72 hrs by SRB assay. The note with it: NIH3T3, 72 h.
The nature of data set [2]: Antiproliferative activity against mouse BaF3/TRP-Met cells assessed as reduction in cell growth incubated for 72 hrs by SRB assay. The note with it: BaF3, 72 h.
Another data set has as its system SNU1. Nature of the data set: Antiproliferative activity against human SNU1 cells assessed as reduction in cell viability incubated for 72 hrs by SRB assay. The conditions noted are these: SNU1, 72 h.
Data set [3] deals with NIH3T3. Put plainly: Antiproliferative activity against mouse NIH3T3/TRP-Met cells assessed as reduction in cell growth incubated for 72 hrs by SRB assay. The conditions noted are these: NIH3T3, 72 h.
For data set [4], the target named is T1, Hepatocyte growth factor receptor (Homo sapiens, UniProt P08581). Nature of the data set: Inhibition of c-MET (unknown origin) incubated for 30 mins by ELISA method. On the technique in general: An ELISA detects its analyte on a solid surface through an enzyme-linked reagent.
Data set [5] concerns the target Proto-oncogene tyrosine-protein kinase receptor Ret (Homo sapiens, UniProt P07949). Put plainly: Inhibition of RET (unknown origin).
A short description of data set [6]: Antiproliferative activity against mouse BaF3/[…] cells assessed as reduction in cell viability incubated for 72 hrs by Cell-titer glo reagent based assay. It counts as functional. The note with it: BaF3, 72 h.
Data set [7] deals with Epidermal growth factor receptor (Homo sapiens, UniProt P00533). Nature of the data set: Inhibition of EGFR (unknown origin).
Data set [8] deals with ALK tyrosine kinase receptor (Homo sapiens, UniProt Q9UM73). Put plainly: Inhibition of ALK (unknown origin).
Data set [9] deals with T2, CYP3A4 (Homo sapiens, UniProt P08684). Nature of the data set: Inhibition of CYP3A4 in human liver microsomes. The format is ADME, Microsome. (Liver microsomes are vesicles of endoplasmic reticulum, rich in cytochrome P450 enzymes.)
A further data set concerns the target Cytochrome P450 3A4 (Homo sapiens, UniProt P08684). Put plainly: Inhibition of CYP3A4 in human liver microsome assessed as fold change. The format is ADME. The note with it: microsomes.
Data set [10] deals with T2, CYP3A4. Nature of the data set: Inhibition of CYP3A4 (unknown origin). The format is ADME.
For data set [11], the target named is T1, Hepatocyte growth factor receptor. Nature of the data set: Inhibition of c-MET (unknown origin) using poly (Glu,Tyr) 4:1 as substrate incubated for 30 mins by ADP-Glo reagent based analysis.
In a further data set the test system is HepG2. Put plainly: Antiproliferative activity against human HepG2 cells assessed as reduction in cell viability incubated for 72 hrs by MTT assay. It counts as functional, cell-based. The conditions noted are these: HepG2, 72 h.
Data set [12] in a line: Water solubility of compound at pH 7 incubated for 2 hrs by HPLC analysis. It counts as physicochemical.
In the next data set the test system is MKN-45. Nature of the data set: Antiproliferative activity against human MKN-45 cells assessed as reduction in cell viability incubated for 72 hrs by Cell-titer glo luminescent assay. It counts as functional, cell-based. The note with it: MKN-45, 72 h.
The subject of the next data set is EBC-1. Nature of the data set: Antiproliferative activity against human EBC-1 cells assessed as reduction in cell viability incubated for 72 hrs by Cell-titer glo luminescent assay. The format is functional, cell-based. The note with it: EBC-1, 72 h.
In data set [13] the target is T1, Hepatocyte growth factor receptor. Nature of the data set: Inhibition of c-Met (unknown origin).

Converted amounts (≈) assume the structure as drawn. Where only a bound is given, the exact number is not on record here.

T1 sequence (P08581 whole entry): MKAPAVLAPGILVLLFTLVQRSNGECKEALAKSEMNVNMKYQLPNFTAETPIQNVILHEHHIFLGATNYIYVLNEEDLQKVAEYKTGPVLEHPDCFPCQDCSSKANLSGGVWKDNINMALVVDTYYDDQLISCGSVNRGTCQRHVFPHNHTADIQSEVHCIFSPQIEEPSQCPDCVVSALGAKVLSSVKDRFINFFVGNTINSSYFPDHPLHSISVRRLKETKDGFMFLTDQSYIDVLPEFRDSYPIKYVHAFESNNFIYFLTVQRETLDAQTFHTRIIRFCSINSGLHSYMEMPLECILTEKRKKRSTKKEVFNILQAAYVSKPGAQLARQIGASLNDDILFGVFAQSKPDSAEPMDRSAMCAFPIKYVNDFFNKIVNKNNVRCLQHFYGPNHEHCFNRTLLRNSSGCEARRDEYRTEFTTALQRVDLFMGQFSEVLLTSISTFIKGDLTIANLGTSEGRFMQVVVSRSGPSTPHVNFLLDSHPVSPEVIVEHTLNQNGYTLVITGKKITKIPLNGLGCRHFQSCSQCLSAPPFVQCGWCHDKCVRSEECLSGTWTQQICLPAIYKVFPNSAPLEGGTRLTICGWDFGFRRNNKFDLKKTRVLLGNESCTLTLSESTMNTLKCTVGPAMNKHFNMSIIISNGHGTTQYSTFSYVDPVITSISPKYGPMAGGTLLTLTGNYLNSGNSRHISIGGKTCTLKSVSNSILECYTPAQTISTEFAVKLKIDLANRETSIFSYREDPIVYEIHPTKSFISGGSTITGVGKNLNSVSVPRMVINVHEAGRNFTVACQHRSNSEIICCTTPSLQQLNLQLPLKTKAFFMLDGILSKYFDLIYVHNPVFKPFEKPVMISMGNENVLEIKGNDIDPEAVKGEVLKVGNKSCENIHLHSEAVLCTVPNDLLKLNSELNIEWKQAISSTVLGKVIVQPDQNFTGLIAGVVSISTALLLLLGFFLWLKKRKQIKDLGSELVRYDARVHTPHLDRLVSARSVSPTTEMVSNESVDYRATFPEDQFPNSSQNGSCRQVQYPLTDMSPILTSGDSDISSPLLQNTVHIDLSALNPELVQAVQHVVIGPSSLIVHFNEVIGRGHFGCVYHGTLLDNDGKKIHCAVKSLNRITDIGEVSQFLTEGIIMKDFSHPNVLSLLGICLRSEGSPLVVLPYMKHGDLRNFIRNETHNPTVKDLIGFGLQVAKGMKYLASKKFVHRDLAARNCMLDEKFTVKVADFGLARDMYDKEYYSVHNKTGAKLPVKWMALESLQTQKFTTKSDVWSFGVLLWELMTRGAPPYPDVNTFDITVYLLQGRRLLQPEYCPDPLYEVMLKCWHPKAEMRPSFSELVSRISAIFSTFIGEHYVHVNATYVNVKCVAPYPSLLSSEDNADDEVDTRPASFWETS
T2 sequence (P08684 whole entry): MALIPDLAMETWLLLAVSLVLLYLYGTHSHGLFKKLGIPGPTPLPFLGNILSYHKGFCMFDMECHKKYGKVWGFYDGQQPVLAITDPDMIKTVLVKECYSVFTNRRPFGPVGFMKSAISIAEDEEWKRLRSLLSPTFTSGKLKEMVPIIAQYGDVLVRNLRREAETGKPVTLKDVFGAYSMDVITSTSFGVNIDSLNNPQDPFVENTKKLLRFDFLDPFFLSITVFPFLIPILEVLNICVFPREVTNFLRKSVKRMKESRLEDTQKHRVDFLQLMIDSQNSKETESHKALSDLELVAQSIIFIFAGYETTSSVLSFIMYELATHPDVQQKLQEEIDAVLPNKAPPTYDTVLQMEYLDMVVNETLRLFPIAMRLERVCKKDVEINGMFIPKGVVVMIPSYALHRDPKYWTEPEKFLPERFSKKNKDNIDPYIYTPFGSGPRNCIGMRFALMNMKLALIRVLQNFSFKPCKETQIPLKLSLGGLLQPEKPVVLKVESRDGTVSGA
Cytochrome P450 3A4, sequence (P08684 whole entry): as above
ALK tyrosine kinase receptor, sequence (Q9UM73 whole entry): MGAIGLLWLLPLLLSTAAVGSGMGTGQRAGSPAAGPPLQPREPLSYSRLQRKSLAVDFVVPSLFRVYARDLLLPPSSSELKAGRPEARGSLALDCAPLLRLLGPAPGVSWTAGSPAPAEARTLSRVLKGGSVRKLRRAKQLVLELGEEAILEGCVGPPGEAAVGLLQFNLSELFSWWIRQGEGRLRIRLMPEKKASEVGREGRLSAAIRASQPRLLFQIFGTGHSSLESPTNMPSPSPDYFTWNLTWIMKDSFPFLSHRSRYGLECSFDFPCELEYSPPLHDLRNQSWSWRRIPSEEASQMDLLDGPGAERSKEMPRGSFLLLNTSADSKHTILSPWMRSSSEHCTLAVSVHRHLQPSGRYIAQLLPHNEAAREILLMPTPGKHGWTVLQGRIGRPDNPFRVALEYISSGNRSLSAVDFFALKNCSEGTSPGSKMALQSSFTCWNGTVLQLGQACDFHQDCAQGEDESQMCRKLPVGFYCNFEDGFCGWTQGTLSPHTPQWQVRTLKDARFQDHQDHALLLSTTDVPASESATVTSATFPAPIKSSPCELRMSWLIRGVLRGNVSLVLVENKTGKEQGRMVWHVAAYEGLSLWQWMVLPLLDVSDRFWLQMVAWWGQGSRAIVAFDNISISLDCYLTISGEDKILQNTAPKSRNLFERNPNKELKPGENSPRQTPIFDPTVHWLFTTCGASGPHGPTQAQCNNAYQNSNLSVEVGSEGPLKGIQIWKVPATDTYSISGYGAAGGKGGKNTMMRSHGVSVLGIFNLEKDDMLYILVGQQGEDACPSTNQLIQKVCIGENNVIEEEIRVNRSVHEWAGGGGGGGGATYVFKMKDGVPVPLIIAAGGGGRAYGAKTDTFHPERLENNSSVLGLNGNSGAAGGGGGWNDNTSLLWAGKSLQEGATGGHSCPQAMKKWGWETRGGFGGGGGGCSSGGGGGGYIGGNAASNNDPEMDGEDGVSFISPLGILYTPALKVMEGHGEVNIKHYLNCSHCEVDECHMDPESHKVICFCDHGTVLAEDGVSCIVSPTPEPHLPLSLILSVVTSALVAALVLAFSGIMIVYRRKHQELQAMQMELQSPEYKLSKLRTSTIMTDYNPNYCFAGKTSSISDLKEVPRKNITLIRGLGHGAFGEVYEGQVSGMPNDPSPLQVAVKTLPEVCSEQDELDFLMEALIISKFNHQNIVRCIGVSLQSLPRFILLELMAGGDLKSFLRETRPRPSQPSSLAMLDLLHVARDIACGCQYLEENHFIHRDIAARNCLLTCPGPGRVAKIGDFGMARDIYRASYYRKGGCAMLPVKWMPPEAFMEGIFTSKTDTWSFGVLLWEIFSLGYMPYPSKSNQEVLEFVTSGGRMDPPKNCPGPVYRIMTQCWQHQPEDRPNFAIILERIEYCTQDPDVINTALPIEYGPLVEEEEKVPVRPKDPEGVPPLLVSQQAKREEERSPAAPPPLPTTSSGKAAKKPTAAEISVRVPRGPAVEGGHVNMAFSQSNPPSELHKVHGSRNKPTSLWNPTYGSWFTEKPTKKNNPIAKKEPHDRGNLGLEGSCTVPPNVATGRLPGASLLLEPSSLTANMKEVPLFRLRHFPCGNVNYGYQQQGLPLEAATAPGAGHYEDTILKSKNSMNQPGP
Epidermal growth factor receptor, sequence (P00533 whole entry): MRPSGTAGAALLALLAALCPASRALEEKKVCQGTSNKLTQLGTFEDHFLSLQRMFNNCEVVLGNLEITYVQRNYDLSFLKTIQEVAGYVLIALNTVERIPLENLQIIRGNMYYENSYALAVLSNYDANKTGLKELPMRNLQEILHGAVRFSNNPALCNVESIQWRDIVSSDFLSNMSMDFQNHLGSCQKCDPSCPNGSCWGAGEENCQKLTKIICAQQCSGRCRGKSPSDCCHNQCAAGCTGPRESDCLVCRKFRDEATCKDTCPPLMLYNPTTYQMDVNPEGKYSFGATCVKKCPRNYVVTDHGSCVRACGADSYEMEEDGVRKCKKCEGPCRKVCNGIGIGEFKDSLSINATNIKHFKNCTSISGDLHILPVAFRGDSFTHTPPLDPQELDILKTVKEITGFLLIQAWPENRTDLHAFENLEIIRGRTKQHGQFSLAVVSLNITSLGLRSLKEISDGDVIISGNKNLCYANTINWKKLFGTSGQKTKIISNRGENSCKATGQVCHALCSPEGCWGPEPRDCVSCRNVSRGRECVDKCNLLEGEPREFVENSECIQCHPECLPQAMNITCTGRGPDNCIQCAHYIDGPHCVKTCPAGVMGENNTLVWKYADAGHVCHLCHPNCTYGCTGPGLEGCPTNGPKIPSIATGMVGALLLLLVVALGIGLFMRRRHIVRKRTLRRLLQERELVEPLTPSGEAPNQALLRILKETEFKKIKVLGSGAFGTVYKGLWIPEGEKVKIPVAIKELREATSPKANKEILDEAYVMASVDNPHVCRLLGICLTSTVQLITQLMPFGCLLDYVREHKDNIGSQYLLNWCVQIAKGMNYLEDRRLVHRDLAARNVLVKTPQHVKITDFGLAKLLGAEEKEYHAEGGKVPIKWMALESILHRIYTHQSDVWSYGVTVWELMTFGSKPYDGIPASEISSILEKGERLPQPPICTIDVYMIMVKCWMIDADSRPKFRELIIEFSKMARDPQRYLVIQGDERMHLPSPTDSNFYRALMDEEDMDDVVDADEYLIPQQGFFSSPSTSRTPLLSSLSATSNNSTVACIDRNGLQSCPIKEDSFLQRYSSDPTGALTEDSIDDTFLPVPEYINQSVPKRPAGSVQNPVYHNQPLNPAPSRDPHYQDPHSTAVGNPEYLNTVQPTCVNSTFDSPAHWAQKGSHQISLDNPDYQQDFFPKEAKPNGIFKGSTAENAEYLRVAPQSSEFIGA

`COc1ccc2c(OCc3nnc4ncc(-c5ccccc5)nn34)ccnc2c1`: the IC50 (in general, the concentration that gives 50% inhibition) in the data set on NCI-H661 was above 50 µM; in the data set with NIH3T3 [1], above 50 µM; in data set [2], 23.7 nM; with SNU1, above 50 µM; with NIH3T3 [3] it was 79.5 nM.
For the molecule `Clc1ccc(-c2cn3cccc(COc4nnc5ccc(Cl)nn45)c3n2)c(Cl)c1`, the IC50 in [4] turned out to be 62 nM; in [5], 12.3 µM; in [6], 271 nM; in [7], 15.6 µM; in data set [8] it was 13.5 µM.
For the molecule `COc1ccc2c(NCc3nnc4ccc(-c5ccccc5)nn34)ccnc2c1`, the concentration for half-maximal inhibition (IC50) on CYP3A4 [9] and against CYP3A4 [10] was above 50 µM in each case. Moreover, the “fold change (FC)” value at Cytochrome P450 3A4 is above 1.
Regarding `COc1ccc2c(SCc3nnc4ccc(-c5ccccc5)nn34)ccnc2c1`, the “fold change (FC)” value at Cytochrome P450 3A4 is 0.64.
For `Cc1ccc(-c2cnc3nnc(SCc4ccncc4)n3n2)cc1`, the IC50 worked out at 4.6 nM in data set [11] and 740 nM with HepG2.
On the same counts, the results for `Brc1ccc(-c2cnc3nnc(SCc4cccnc4)n3n2)cc1` are 6.4 nM and 710 nM.
Turning to `Oc1ccc(-c2cnc3nnc(SCc4ccncc4)n3n2)cc1`, the solubility – broadly, the dissolved amount per volume that the medium holds – at 2 h in data set [12] came to 3.6 µg/mL (≈ 10.7 µM).
`Cc1[nH]c2ncc(-c3cnn(C4CCNCC4)c3)cc2c1C(C)c1c(Cl)ccc(F)c1Cl` (centres undefined): the IC50 came to 1.98 µM in the data set with MKN-45 and 2.38 µM in the data set with EBC-1.
In the case of `Cc1ccc(-c2cnc3nnc(SCc4cccnc4)n3n2)cc1`, the IC50 in [11] was 5.6 nM; in the data set on HepG2, 1020 nM.
For the molecule `CC(c1c(Cl)ccc(F)c1Cl)c1c(Cl)[nH]c2ncc(-c3cnn(C4CCNCC4)c3)cc12` (centres undefined), the values for the IC50 in the data set with MKN-45 and with EBC-1 were 6.52 µM and 9.21 µM, respectively.
`Oc1ccc(-c2cnc3nnc(NCc4ccncc4)n3n2)cc1` gave a solubility at 2 h in data set [12] of 203 µg/mL (≈ 636 µM). In addition, the figures for the IC50 (in data set [11]; with HepG2) were 52 nM and 3060 nM, respectively.
For the molecule `Clc1ccc(Cl)c(-c2cn3cccc(COc4nnc5ccc(Cl)nn45)c3n2)c1`, the IC50 came to 53 nM in data set [4]; 12.2 µM in data set [5]; 253 nM in data set [6]; 14.2 µM in data set [7]; 11.3 µM in [8].
In [13], `COc1ccc2c(OCc3nnc4ccc(-c5ccccc5)nn34)ccnc2c1` [AMG-208] had an IC50 of 4.4 nM.
